In ChEMBL document CHEMBL1201862, “PubChem BioAssay data set” (2004):
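Dose response: 5 concentrations. Exposure: 48 h. Format: 96-well plates. Endpoint: linear interpolation; highest concentration if not reached. Here, GI50 denotes the concentration required for 50% inhibition of growth.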 Active and inactive are the calls of the source. Cut-off read from the data, not from the text of the source: active = GI50 up to about 1.1 µM and inactive = higher.

What was measured:
Test in all cases: DTP human tumour cell line panel, 48 h
[1] = system: 786-0
[2] = system: A498
[3] = system: A549
[4] = system: ACHN
[5] = system: BT-549
[6] = system: CAKI-1
[7] = system: CCRF-CEM
[8] = system: COLO 205
[9] = system: DLD-1
[10] = system: DMS-114
[11] = system: DMS-273
[12] = system: DU-145
[13] = system: EKVX
[14] = system: HCC 2998
[15] = system: HCT-116
[16] = system: HCT-15
[17] = system: HL-60
[18] = system: HOP-18
[19] = system: HOP-62
[20] = system: HOP-92
[21] = system: HT-29
[22] = system: Hs-578T
[23] = system: IGROV-1
[24] = system: K562
[25] = system: KM-20L2
[26] = system: KM12
[27] = system: LOX IMVI
[28] = system: LXFL 529
[29] = system: M14
[30] = system: M19-MEL
[31] = system: MCF7
[32] = system: MDA-MB-231
[33] = system: MDA-MB-435
[34] = system: MDA-N
[35] = system: MOLT-4
[36] = system: Malme-3M
[37] = system: NCI-H226
[38] = system: NCI-H23
[39] = system: NCI-H460
[40] = system: NCI-H522
[41] = system: NCI/ADR-RES
[42] = system: OVCAR-3
[43] = system: OVCAR-4
[44] = system: OVCAR-5
[45] = system: OVCAR-8
[46] = system: PC-3
[47] = system: RPMI-8226
[48] = system: RXF 393
[49] = system: RXF 631
[50] = system: SF-268
[51] = system: SF-295
[52] = system: SF-539
[53] = system: SK-MEL-28
[54] = system: SK-MEL-2
[55] = system: SK-MEL-5
[56] = system: SK-OV-3
[57] = system: SN12C
[58] = system: SNB-19
[59] = system: SNB-75
[60] = system: SNB-78
[61] = system: SR
[62] = system: SW-620
[63] = system: T47D
[64] = system: TK-10
[65] = system: U-251
[66] = system: UACC-257
[67] = system: UACC-62
[68] = system: UO-31
[69] = system: XF498

CCCCCCCCCCNC1CC(OC2CC(O)(C(O)CO)Cc3c(O)c4c(c(O)c32)C(=O)c2c(OC)cccc2C4=O)OC(C)C1O (centres undefined)
GI50 [1]: 1840 nM (inactive)
GI50 [2]: 1500 nM (inactive)
GI50 [3]: 1580 nM (inactive)
GI50 [4]: 1730 nM (inactive)
GI50 [5]: 1700 nM (inactive)
GI50 [6]: 1680 nM (inactive)
GI50 [7]: 388 nM (active)
GI50 [8]: 1660 nM (inactive)
GI50 [9]: 1130 nM (inactive)
GI50 [10]: 1460 nM (inactive)
GI50 [11]: 1790 nM (inactive)
GI50 [12]: 1790 nM (inactive)
GI50 [13]: 1780 nM (inactive)
GI50 [14]: 1330 nM (inactive)
GI50 [15]: 692 nM (active)
GI50 [16]: 1560 nM
GI50 [17]: 434 nM (active)
GI50 [18]: 1870 nM (inactive)
GI50 [19]: 1660 nM (inactive)
GI50 [20]: 1470 nM (inactive)
GI50 [21]: 1330 nM (inactive)
GI50 [22]: 1670 nM (inactive)
GI50 [23]: 1740 nM (inactive)
GI50 [24]: 324 nM (active)
GI50 [25]: 1690 nM (inactive)
GI50 [26]: 1500 nM (inactive)
GI50 [27]: 641 nM (active)
GI50 [28]: 731 nM (active)
GI50 [29]: 1690 nM (inactive)
GI50 [30]: 1650 nM (inactive)
GI50 [31]: 1010 nM (active)
GI50 [32]: 1360 nM (inactive)
GI50 [33]: 1770 nM (inactive)
GI50 [34]: 1500 nM (inactive)
GI50 [35]: 189 nM (active)
GI50 [36]: 1940 nM (inactive)
GI50 [37]: 1790 nM (inactive)
GI50 [38]: 2630 nM (inactive)
GI50 [39]: 601 nM (active)
GI50 [40]: 1760 nM (inactive)
GI50 [41]: 1880 nM (inactive)
GI50 [42]: 1690 nM (inactive)
GI50 [43]: 1530 nM (inactive)
GI50 [44]: 1800 nM (inactive)
GI50 [45]: 1550 nM (inactive)
GI50 [46]: 1470 nM (inactive)
GI50 [47]: 839 nM (active)
GI50 [48]: 1260 nM (inactive)
GI50 [49]: 1530 nM (inactive)
GI50 [50]: 1920 nM (inactive)
GI50 [51]: 1900 nM (inactive)
GI50 [52]: 1770 nM (inactive)
GI50 [53]: 1760 nM (inactive)
GI50 [54]: 1400 nM (inactive)
GI50 [55]: 1740 nM (inactive)
GI50 [56]: 1600 nM (inactive)
GI50 [57]: 1650 nM (inactive)
GI50 [58]: 1880 nM (inactive)
GI50 [59]: 1620 nM (inactive)
GI50 [60]: 1840 nM (inactive)
GI50 [61]: 408 nM (active)
GI50 [62]: 791 nM (active)
GI50 [63]: 1860 nM (inactive)
GI50 [64]: 4440 nM (inactive)
GI50 [65]: 986 nM (active)
GI50 [66]: 1720 nM (inactive)
GI50 [67]: 1790 nM (inactive)
GI50 [68]: 1770 nM (inactive)
GI50 [69]: 1910 nM (inactive)
